In article doi:10.1101/2021.01.09.426030v4 (biorxiv, 2022):

How the values were obtained:
Experiment in all cases: cells
Set-up in all cases: species or system GBM PDCLs
Conditions in all cases: 72 h, read-out: Erlotinib (IC50 µM)
BT333 = system: BT333
BT112 = system: BT112
BT179 = system: BT179

- IC50 (BT333): > 20 µM
- IC50 (BT112): 18.5 µM
- IC50 (BT179): 11.7 µM
Compound: C#Cc1cccc(Nc2ncnc3cc(OCCOC)c(OCCOC)cc23)c1 [erlotinib]
